The values below come from patent US12404285B2, “KRAS G12D proteolysis targeting chimeras” (PAQ Therapeutics Inc., priority 2022, dated 2025).

T1 sequence (P01116 1-188 isoform P01116-2 G12D): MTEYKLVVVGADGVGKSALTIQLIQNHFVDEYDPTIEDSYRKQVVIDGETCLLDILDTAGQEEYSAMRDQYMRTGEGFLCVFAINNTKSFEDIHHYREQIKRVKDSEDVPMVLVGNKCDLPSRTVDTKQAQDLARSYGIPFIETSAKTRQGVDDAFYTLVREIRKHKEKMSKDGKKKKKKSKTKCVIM

The experiment concerns the target T1, KRAS (G12D)-HiBit in AsPc-1-KRAS (G12D)-HiBit-KI cell (Homo sapiens, UniProt P01116, G12D).
T1 construct: host or cells: AsPc-1-KRAS (G12D)-HiBit-KI cells (knock-in line)
The experiment can be described thus: G12D HiBit assay. The format is cell-based. Particulars: 24 hours compound treatment, absolute DC50, read-out: Average PHA DC50. Summed up: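 Degradation of endogenous HiBiT-tagged KRAS G12D in AsPc-1 knock-in cells read after 24 h compound exposure (0.015-300 nM, 3-fold steps) by Nano-Glo HiBiT lytic luminescence. Signal normalised to DMSO-only cells; absolute DC50 derived by curve fitting.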
(In general: With HiBiT, luminescence reflects the tagged protein that the partner subunit can reach.)
Turning to `C#Cc1c(F)ccc2cccc(-c3ncc4c(N5CC6CCC(C5)N6)nc(OC[C@@]56CCCN5[C@H](COC(=O)NC[C@@H]5CN(CC#Cc7cccc8c7n(C)c(=O)n8C7CCC(=O)NC7=O)CCO5)CC6)nc4c3F)c12` (stereo partly drawn) [Compound 125, [(3S,8S)-8-[[4-(3,8-Diazabicyclo[3.2.1]octan-3-yl)-7-(8-ethynyl-7-fluoro-1-naphthyl)-8-fluoro-pyrido[4,3-d]pyrimidin-2-yl]oxymethyl]-1,2,3,5,6,7-hexahydropyrrolizin-3-yl]methylN-[[(2R)-4-[3-[1-(2,6-dioxo-3-piperidyl)-3-methyl-2-oxo-benzimidazol-4-yl]prop-2-ynyl]morpholin-2-yl]methyl]carbamate], the DC50 was at least 300 nM.
With `C#Cc1c(F)ccc2cccc(-c3ncc4c(N5CC6CCC(C5)N6)nc(OC[C@@]56CCCN5[C@H](COC(=O)NC[C@@H]5CN(CCCc7cccc8c7n(C)c(=O)n8C7CCC(=O)NC7=O)CCO5)CC6)nc4c3F)c12` (stereo partly drawn) [Compound 126, [(3S,8S)-8-[[4-(3,8-Diazabicyclo[3.2.1]octan-3-yl)-7-(8-ethynyl-7-fluoro-1-naphthyl)-8-fluoro-pyrido[4,3-d]pyrimidin-2-yl]oxymethyl]-1,2,3,5,6,7-hexahydropyrrolizin-3-yl]methyl N-[[(2 R)-4-[3-[1-(2,6-dioxo-3-piperidyl)-3-methyl-2-oxo-benzimidazol-4-yl]propyl]morpholin-2-yl]methyl]carbamate], the DC50 was at least 300 nM.
Take `C#Cc1c(F)ccc2cccc(-c3ncc4c(N5CC6CCC(C5)N6)nc(OC[C@@]56CCCN5[C@H](COC(=O)N5CCC(C7CCN(c8cccc9c8n(C)c(=O)n9C8CCC(=O)NC8=O)CC7)CC5)CC6)nc4c3F)c12` (stereo partly drawn) [Compound 127, [(3S,8S)-8-[[4-(3,8-Diazabicyclo[3.2.1]octan-3-yl)-7-(8-ethynyl-7-fluoro-1-naphthyl)-8-fluoro-pyrido[4,3-d]pyrimidin-2-yl]oxymethyl]-1,2,3,5,6,7-hexahydropyrrolizin-3-yl]methyl 4-[1-[1-(2,6-dioxo-3-piperidyl)-3-methyl-2-oxo-benzimidazol-4-yl]-4-piperidyl]piperidine-1-carboxylate]: the DC50 was at least 300 nM.
`C#Cc1c(F)ccc2cccc(-c3ncc4c(N5CC6CCC(C5)N6)nc(OC[C@@]56CCCN5[C@H](COC(=O)N5CCC(COC7CCN(Cc8cccc9c8n(C)c(=O)n9C8CCC(=O)NC8=O)CC7)CC5)CC6)nc4c3F)c12` (stereo partly drawn) [Compound 128, [(3S,8S)-8-[[4-(3,8-diazabicyclo[3.2.1]octan-3-yl)-7-(8-ethynyl-7-fluoro-1-naphthyl)-8-fluoro-pyrido[4,3-d]pyrimidin-2-yl]oxymethyl]-1,2,3,5,6,7-hexahydropyrrolizin-3-yl]methyl4-[[1-[[1-(2,6-dioxo-3-piperidyl)-3-methyl-2-oxo-benzimidazol-4-yl]methyl]-4-piperidyl]oxymethyl]piperidine-1-carboxylate]: the DC50 was under 100 nM.
As for `C#Cc1c(F)ccc2cccc(-c3ncc4c(N5CC6CCC(C5)N6)nc(OC[C@@]56CCCN5[C@H](COC(=O)N5CCC7(CC5)CCN(c5cccc8c5n(C)c(=O)n8C5CCC(=O)NC5=O)CC7)CC6)nc4c3F)c12` (stereo partly drawn) [Compound 129, [(3S,8S)-8-[[4-(3,8-Diazabicyclo[3.2.1]octan-3-yl)-7-(8-ethynyl-7-fluoro-1-naphthyl)-8-fluoro-pyrido[4,3-d]pyrimidin-2-yl]oxymethyl]-1,2,3,5,6,7-hexahydropyrrolizin-3-yl]methyl9-[1-(2,6-dioxo-3-piperidyl)-3-methyl-2-oxo-benzimidazol-4-yl]-3,9-diazaspiro[5.5]undecane-3-carboxylate], the DC50 was at least 300 nM.
With `C#Cc1c(F)ccc2cccc(-c3ncc4c(N5CC6CCC(C5)N6)nc(OC[C@@]56CCCN5[C@H](COC(=O)N5CCC(OC7CCN(Cc8cccc9c8n(C)c(=O)n9C8CCC(=O)NC8=O)CC7)CC5)CC6)nc4c3F)c12` (stereo partly drawn) [Compound 130, [(3S,8S)-8-[[4-(3,8-Diazabicyclo[3.2.1]octan-3-yl)-7-(8-ethynyl-7-fluoro-1-naphthyl)-8-fluoro-pyrido[4,3-d]pyrimidin-2-yl]oxymethyl]-1,2,3,5,6,7-hexahydropyrrolizin-3-yl]methyl4-[[1-[[1-(2,6-dioxo-3-piperidyl)-3-methyl-2-oxo-benzimidazol-4-yl]methyl]-4-piperidyl]oxy]piperidine-1-carboxylate] the figure was under 100 nM; with `C#Cc1c(F)ccc2cccc(-c3ncc4c(N5CC6CCC(C5)N6)nc(OC[C@@]56CCCN5[C@H](COC(=O)N5CCC(N7CCN(c8cccc9c8n(C)c(=O)n9C8CCC(=O)NC8=O)CC7)CC5)CC6)nc4c3F)c12` (stereo partly drawn) [Compound 131, [(3S,8S)-8-[[4-(3,8-Diazabicyclo[3.2.1]octan-3-yl)-7-(8-ethynyl-7-fluoro-1-naphthyl)-8-fluoro-pyrido[4,3-d]pyrimidin-2-yl]oxymethyl]-1,2,3,5,6,7-hexahydropyrrolizin-3-yl]methyl4-[4-[1-(2,6-dioxo-3-piperidyl)-3-methyl-2-oxo-benzimidazol-4-yl]piperazin-1-yl]piperidine-1-carboxylate], at least 300 nM.
Take `C#Cc1c(F)ccc2cccc(-c3ncc4c(N5C[C@H]6CC[C@@H](C5)N6)nc(OC[C@@]56CCCN5[C@H](COC(=O)N5CCC(CC7CCN(Cc8cccc9c8n(C)c(=O)n9C8CCC(=O)NC8=O)CC7)CC5)CC6)nc4c3F)c12` (stereo partly drawn) [Compound 132, ((3S,7aS)-7a-(((4-((1R,5S)-3,8-Diazabicyclo[3.2.1]octan-3-yl)-7-(8-ethynyl-7-fluoronaphthalen-1-yl)-8-fluoropyrido[4,3-d]pyrimidin-2-yl)oxy)methyl)hexahydro-1H-pyrrolizin-3-yl)methyl4-((1-((1-(2,6-dioxopiperidin-3-yl)-3-methyl-2-oxo-2,3-dihydro-1H-benzo[d]imidazol-4-yl)methyl)piperidin-4-yl)methyl)piperidine-1-carboxylate]: the DC50 is under 100 nM.
Next, `C#Cc1c(F)ccc2cccc(-c3ncc4c(N5CC6CCC(C5)N6)nc(OC[C@@]56CCCN5[C@H](COC(=O)N5CCC(OCCc7ccc8c(c7)n(C)c(=O)n8C7CCC(=O)NC7=O)CC5)CC6)nc4c3F)c12` (stereo partly drawn) [Compound 133, [(3S,8S)-8-[[4-(3,8-Diazabicyclo[3.2.1]octan-3-yl)-7-(8-ethynyl-7-fluoro-1-naphthyl)-8-fluoro-pyrido[4,3-d]pyrimidin-2-yl]oxymethyl]-1,2,3,5,6,7-hexahydropyrrolizin-3-yl]methyl 4-[2-[1-(2,6-dioxo-3-piperidyl)-3-methyl-2-oxo-benzimidazol-5-yl]ethoxy]piperidine-1-carboxylate]: at least 300 nM; `C#Cc1c(F)ccc2cccc(-c3ncc4c(N5CC6CCC(C5)N6)nc(OC[C@@]56CCCN5[C@H](COC(=O)N(C)CCC5CCN(Cc7cccc8c7n(C)c(=O)n8C7CCC(=O)NC7=O)CC5)CC6)nc4c3F)c12` (stereo partly drawn) [Compound 134, [(3S,8S)-8-[[4-(3,8-diazabicyclo[3.2.1]octan-3-yl)-7-(8-ethynyl-7-fluoro-1-naphthyl)-8-fluoro-pyrido[4,3-d]pyrimidin-2-yl]oxymethyl]-1,2,3,5,6,7-hexahydropyrrolizin-3-yl]methyl N-[2-[1-[[1-(2,6-dioxo-3-piperidyl)-3-methyl-2-oxo-benzimidazol-4-yl]methyl]-4-piperidyl]ethyl]-N-methyl-carbamate]: under 100 nM; `C#Cc1c(F)ccc2cccc(-c3ncc4c(N5CC6CCC(C5)N6)nc(OC[C@@]56CCCN5[C@H](COC(=O)N5CCC(OCCc7cccc8c7n(C)c(=O)n8C7CCC(=O)NC7=O)CC5)CC6)nc4c3F)c12` (stereo partly drawn) [Compound 135, [(3S,8S)-8-[[4-(3,8-Diazabicyclo[3.2.1]octan-3-yl)-7-(8-ethynyl-7-fluoro-1-naphthyl)-8-fluoro-pyrido[4,3-d]pyrimidin-2-yl]oxymethyl]-1,2,3,5,6,7-hexahydropyrrolizin-3-yl]methyl 4-[2-[1-(2,6-dioxo-3-piperidyl)-3-methyl-2-oxo-benzimidazol-4-yl]ethoxy]piperidine-1-carboxylate]: under 100 nM.
Regarding `C#Cc1c(F)ccc2cccc(-c3ncc4c(N5CC6CCC(C5)N6)nc(OC[C@@]56CCCN5[C@H](COC(=O)N5CCC(OCCCc7ccc8c(c7)n(C)c(=O)n8C7CCC(=O)NC7=O)CC5)CC6)nc4c3F)c12` (stereo partly drawn) [Compound 136, [(3S,8S)-8-[[4-(3,8-Diazabicyclo[3.2.1]octan-3-yl)-7-(8-ethynyl-7-fluoro-1-naphthyl)-8-fluoro-pyrido[4,3-d]pyrimidin-2-yl]oxymethyl]-1,2,3,5,6,7-hexahydropyrrolizin-3-yl]methyl 4-[3-[1-(2,6-dioxo-3-piperidyl)-3-methyl-2-oxo-benzimidazol-5-yl]propoxy]piperidine-1-carboxylate], the DC50 was under 100 nM.
With `C#Cc1c(F)ccc2cccc(-c3ncc4c(N5CC6CCC(C5)N6)nc(OC[C@@]56CCCN5[C@H](COC(=O)N5CCC(OCCCc7cccc8c7n(C)c(=O)n8C7CCC(=O)N(C)C7=O)CC5)CC6)nc4c3F)c12` (stereo partly drawn) [Compound 144, [(3S,8S)-8-[[4-(3,8-Diazabicyclo[3.2.1]octan-3-yl)-7-(8-ethynyl-7-fluoro-1-naphthyl)-8-fluoro-pyrido[4,3-d]pyrimidin-2-yl]oxymethyl]-1,2,3,5,6,7-hexahydropyrrolizin-3-yl]methyl 4-[3-[3-methyl-1-(1-methyl-2,6-dioxo-3-piperidyl)-2-oxo-benzimidazol-4-yl]propoxy]piperidine-1-carboxylate] the figure was at least 300 nM; with `C#Cc1c(F)ccc2cccc(-c3ncc4c(N5CC6CCC(C5)N6)nc(OC[C@@]56CCCN5[C@H](COC(=O)N5CCC(CNC7CCN(Cc8cccc9c8n(C)c(=O)n9C8CCC(=O)NC8=O)CC7)CC5)CC6)nc4c3F)c12` (stereo partly drawn) [Compound 145, [(3S,8S)-8-[[4-(3,8-Diazabicyclo[3.2.1]octan-3-yl)-7-(8-ethynyl-7-fluoro-1-naphthyl)-8-fluoro-pyrido[4,3-d]pyrimidin-2-yl]oxymethyl]-1,2,3,5,6,7-hexahydropyrrolizin-3-yl]methyl 4-[[[1-[[1-(2,6-dioxo-3-piperidyl)-3-methyl-2-oxo-benzimidazol-4-yl]methyl]-4-piperidyl]amino]methyl]piperidine-1-carboxylate], under 100 nM.
